Structures can show the parent of a compound that is named as a salt.
Legend:
[1] = biological target: D1 receptor (Rattus norvegicus, UniProt P18901); assay: biochemical; assay type: binding, rat (Sprague-Dawley); conditions: [3H]-SCH23390 0.2 nM, rat striated membranes, pH 7.4, 37° C., 20 minutes; read-out: Affinity [K1 (nM)] towards D1 receptor
Description: (§1) The tissue were homogenized in 50 mM Tris/HCl buffer at pH 7.4 (1:100 w/v).
(§2) The homogenate was centrifuged and the pellet resuspended, recentrifuged and resuspended again in 50 mM Tris/HCl buffer at pH 7.4 containing 120 mM NaCl, 5 mM KCl, 2 mM CaCl2 and 1 mM MgCl2.
The mixture was incubated with different concentrations of the tested compounds at 37° C. for 20 minutes, filtered under vacuum through Whatman GF/C filters and then washed 4 times with 5 ml of 50 mM Tris/HCl buffer (pH 7.4) cooled with ice.

[2] = biological target: D2 receptor (Rattus norvegicus, UniProt P61169); assay: biochemical; assay type: binding, rat (Sprague-Dawley); conditions: [3H]-domperidone 0.3 nM, rat striated membranes, 0.01% BSA, 37° C., 30 minutes; read-out: Affinity [K1 (nM)] towards D2 receptor
Description: as §1, §2
Furthermore, bovine serum albumine (BSA) (0.01%) was added.
The mixture was incubated at 37° C. for 30 minutes for each concentration of tested compounds.

[3] = test system: D1 -like (Rabbit Splenic Artery); assay: D1-like activity in the Rabbit Splenic Artery (RSA) test; conditions: agonist activity at the peak of the effect; contracted with U46619 0.1 μM
Description: Arterial rings were prepared according to Semeraro et al., Naunyn. Schmied. Arch. Pharmacol., 1990, 342, 539.
The arterial preparations were contracted with U46619 (9,11-di-deoxy-11α,9α-epoxy-methanoprostaglandin F2α) at the submaximal concentration 0.1 μM.
(§3) The tested compounds were cumulatively administered.
(§4) Ref. A was used as reference substance.
(§5) Agonist activity evaluated at the peak of the effect and expressed as potency ratio (EC50 of Ref. A/EC50 of tested compound) is reported in table 2.

[4] = biological target: T1, D2 -like (Rabbit Ear Artery) (Oryctolagus cuniculus, UniProt G1T1Q0); assay: D2-like activity in the Rabbit Ear Artery (REA) test; parameters: species or system New Zealand rabbit; conditions: agonist activity at the peak of the effect; electrically stimulated
T1 construct: the central ear artery was dissected into 3 mm long rings; from tissue; host or cells: rabbit central ear artery rings (male New Zealand rabbits), electrically stimulated
Description: Arterial rings were prepared according to the method described by Steinsland et al., Science, 1978, 443, 199, modified as follows. Male New Zealand rabbits weighing 2.5-3 Kg were sacrificed by intravenous injection of an excess of pentobarbital sodium and exsanguinated. The two ears were taken away and the central ear artery was dissected into 3 mm long rings.
These preparations were set up in a 25 ml organ bath containing Krebs solution (mM/l): NaCl 118, KCl 4.7, CaCl2 2.5, MgSO4 1.2, NaHCO3 25, KH2 PO4 1.2, glucose 11.1, equilibrated with 95% 02 -5% CO2 and maintained at 35°±1° C.
Krebs solution was medicated with EDTA (10 μM) to prevent cathecolamine oxydation, desipramine (0.1 μM) and corticosterone (30 μM), to block neuronal and extraneuronal cathecolamine uptake. The preparations were electrically stimulated (10 Hz, 1 msec, 40-80 mA, 500 msec duration) at 5 minutes intervals.
as §3, §4, §5

[5] = test system: spontaneously hypertensive rats; assay: In vivo antihypertensive activity, i.v., spontaneously hypertensive rats; parameters: species or system rat (spontaneously hypertensive, Charles River); conditions: 30 nmol/kg i.v. bolus; recorded over 4 hours; basal MBP 190-200 mmHg; Ref. A n = 6, Compound 22 n = 7
Description: Male spontaneously hypertensive rats (Charles River) more than 14 weeks old were used.
Catheters were inserted into the right carotid artery and into the left giugular vein under barbituric anesthesia.
The animals were allowed to recover overnight.
The tested compounds were administered into the left giugular vein by bolus injection.
Control animals were injected with an equal volume of vehicle. The induced effect was continuously recorded over a period of 4 hours.
Basal values of Mean Blood Pressure (MBP) were in the range of 190-200 mmHg.
The antihypertensive activity of compound 22 expressed as MBP reduction compared with the antihypertensive activity of Ref. A is reported in the following table.

[6] = Fitton and Benfield, Drugs 1990; cited from earlier work
[7] = test system: dopaminergic receptors; conditions: Fitton and Benfield, Drugs 1990; cited from earlier work

Sequence of D1 receptor (P18901 whole entry): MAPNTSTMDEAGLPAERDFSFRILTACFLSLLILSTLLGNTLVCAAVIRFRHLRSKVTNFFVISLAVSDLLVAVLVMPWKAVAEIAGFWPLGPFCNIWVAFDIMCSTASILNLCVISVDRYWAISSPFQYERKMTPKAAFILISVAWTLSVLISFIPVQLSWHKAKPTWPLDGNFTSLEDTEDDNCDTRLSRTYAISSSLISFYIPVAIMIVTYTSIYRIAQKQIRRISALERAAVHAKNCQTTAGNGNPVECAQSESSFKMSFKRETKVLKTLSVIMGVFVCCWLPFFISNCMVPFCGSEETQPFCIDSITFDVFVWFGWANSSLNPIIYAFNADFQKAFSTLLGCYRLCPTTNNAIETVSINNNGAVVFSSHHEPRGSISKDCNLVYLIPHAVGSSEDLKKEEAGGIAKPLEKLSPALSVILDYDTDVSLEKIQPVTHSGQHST
T1 sequence (G1T1Q0 1-443): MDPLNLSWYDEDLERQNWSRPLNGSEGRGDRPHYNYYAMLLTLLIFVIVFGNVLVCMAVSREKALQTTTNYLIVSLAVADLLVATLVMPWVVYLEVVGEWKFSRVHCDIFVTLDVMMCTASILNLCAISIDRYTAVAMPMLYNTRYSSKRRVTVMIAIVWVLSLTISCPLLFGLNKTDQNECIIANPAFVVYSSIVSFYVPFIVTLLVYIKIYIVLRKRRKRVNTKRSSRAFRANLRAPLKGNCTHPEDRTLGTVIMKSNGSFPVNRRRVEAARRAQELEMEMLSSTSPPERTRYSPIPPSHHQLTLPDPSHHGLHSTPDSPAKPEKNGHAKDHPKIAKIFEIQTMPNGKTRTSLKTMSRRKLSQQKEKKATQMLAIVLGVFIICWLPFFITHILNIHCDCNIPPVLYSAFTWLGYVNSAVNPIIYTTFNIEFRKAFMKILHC
Sequence of D2 receptor (P61169 whole entry): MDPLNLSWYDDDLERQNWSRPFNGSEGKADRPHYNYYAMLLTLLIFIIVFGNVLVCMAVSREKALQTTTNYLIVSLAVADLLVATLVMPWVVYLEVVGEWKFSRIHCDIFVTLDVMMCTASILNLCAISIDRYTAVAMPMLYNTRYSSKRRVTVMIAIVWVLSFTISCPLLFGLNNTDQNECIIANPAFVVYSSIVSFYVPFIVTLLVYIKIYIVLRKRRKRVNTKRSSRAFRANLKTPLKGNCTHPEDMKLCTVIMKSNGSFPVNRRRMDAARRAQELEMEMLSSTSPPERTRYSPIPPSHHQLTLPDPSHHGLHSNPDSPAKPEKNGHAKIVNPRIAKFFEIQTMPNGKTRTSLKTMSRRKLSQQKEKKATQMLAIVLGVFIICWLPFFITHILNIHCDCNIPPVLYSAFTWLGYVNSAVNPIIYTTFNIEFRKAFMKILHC

Structure (SMILES)	Ki [1] [nM]	Ki [2] [nM]	D1 -like (RSA) potency ratio (EC50 of Ref. A/EC50 of tested compound) [3]	D2 -like (REA) potency ratio (EC50 of Ref. A/EC50 of tested compound) [4]	MBP reduction, mean ± S.E. [5] [mmHg]	absorption when administered by oral route [6]	agonist activity at dopaminergic receptors compared with dopamine [7]
Br.Br.CCCN(CCCCCCNCCCc1ccc(O)c(O)c1)[C@H]1CCc2c(ccc(O)c2O)C1 [Compound 13, (S)-N-propyl-N-[6-[3-(3,4-dihydroxyphenyl)propylamino]hexyl]-5,6-dihydroxy-1,2,3,4-tetrahydro-2-naphthylamine dihydrobromide]	29	0.4	10	14			
CCCN(CCCCCCNCCc1ccccc1OC)[C@H]1CCc2c(ccc(O)c2O)C1.Cl.Cl [Ref. A, (S)-N-propyl-N-[6-[2-(2-methoxyphenyl)ethylamino]hexyl]-5,6-dihydroxy-1,2,3,4-tetrahydro-2-naphthylamine dihydrochloride, reference compound]	158	0.8	1		-25 ± 1.1		
Br.Br.CCCN(CCCCCCNCCSc1ccc(O)cc1)[C@H]1CCc2c(ccc(O)c2O)C1 [Compound 8, (S)-N-propyl-N-[6-[2-(4-hydroxyphenylthio)ethylamino]hexyl]-5,6-dihydroxy-1,2,3,4-tetrahydro-2-naphthylamine dihydrobromide]	23	0.1	1	1.7			
CCCN(CCCCCCNCCOc1ccc([N+](=O)[O-])cc1)[C@H]1CCc2c(ccc(O)c2O)C1 [Compound 5, (S)-N-propyl-N-[6-[2-(4-nitrophenoxy)ethylamino]hexyl]-5,6-dihydroxy-1,2,3,4-tetrahydro-2-naphthylamine dihydrochloride]	69	1.5					
Br.Br.CCCN(CCCCCCNCCc1ccc(S(C)(=O)=O)cc1)[C@H]1CCc2c(ccc(O)c2O)C1 [Compound 22, (S)-N-propyl-N-[6-[2-(4-methylsulphonylphenyl)ethylamino]hexyl]-5,6-dihydroxy-1,2,3,4-tetrahydro-2-naphthylamine dihydrobromide]			14	3	-61.7 ± 5.7		
Br.Br.CCCN(CCCCCCNCCCc1ccc(O)cc1)[C@H]1CCc2c(ccc(O)c2O)C1 [Compound 9, (S)-N-propyl-N-[6-[3-(4-hydroxyphenyl)propylamino]hexyl]-5,6-dihydroxy-1,2,3,4-tetrahydro-2-naphthylamine dihydrobromide]	22	0.15	10	5			
Br.Br.CCCN(CCCCCCN1CCc2cc(O)c(O)cc2C1)[C@H]1CCc2c(ccc(O)c2O)C1 [Compound 10, (S)-N-propyl-N-[6-(6,7-dihydroxy-1,2,3,4-tetrahydroisoquinolin-2-yl)hexyl]-5,6-dihydroxy-1,2,3,4-tetrahydro-2-naphthylamine dihydrobromide]	117	0.6	1.4	2			
Br.Br.Br.CCCN(CCCCCCN1CCN(Cc2ccc(O)cc2)CC1)[C@H]1CCc2c(ccc(O)c2O)C1 [Compound 15, (S)-N-propyl-N-[6-[4-(4-hydroxyphenylmethyl)piperazin-1-yl]hexyl]-5,6-dihydroxy-1,2,3,4-tetrahydro-2-naphthylamine trihydrobromide]	119	0.24	0.9	0.5			
CCCN(CCCCCCN1CCN(c2ccccc2OC)CC1)[C@H]1CCc2c(ccc(O)c2O)C1 [Compound 3, (S)-N-propyl-N-[6-[4-(2-methoxyphenyl)piperazin-1-yl]hexyl]-5,6-dihydroxy-1,2,3,4-tetrahydro-2-naphthylamine trihydrochloride]	69	0.31					
CCCN(CCCCCCNCCOc1ccc(S(C)(=O)=O)cc1)[C@H]1CCc2c(ccc(O)c2O)C1.Cl.Cl [Compound 6, (S)-N-propyl-N-[6-[2-(4-methylsulphonylphenoxy)ethylamino]hexyl]-5,6-dihydroxy-1,2,3,4-tetrahydro-2-naphthylamine dihydrochloride]	81	1.3	10	3			
CCCN(CCCCCCNCCc1ccc2c(c1)OCO2)[C@H]1CCc2c(ccc(O)c2O)C1.Cl.Cl [Compound 2, (S)-N-propyl-N-[6-[2-(3,4-methylendioxyphenyl)ethylamino]hexyl]-5,6-dihydroxy-1,2,3,4-tetrahydro-2-naphthylamine dihydrochloride]	25	0.4	10	0.3			
Br.Br.CCCN(CCCCCCNCCCc1ccccc1O)[C@H]1CCc2c(ccc(O)c2O)C1 [Compound 16, (S)-N-propyl-N-[6-[3-(2-hydroxyphenyl)propylamino]hexyl]-5,6-dihydroxy-1,2,3,4-tetrahydro-2-naphthylamine dihydrobromide]	178	0.2	3	0.8			
CCCN(CCCCCCNCCOc1ccc(O)cc1)[C@H]1CCc2c(ccc(O)c2O)C1.Cl.Cl [Compound 24, (S)-N-propyl-N-[6-[2-(4-hydroxyphenoxy)ethylamino]hexyl]-5,6-dihydroxy-1,2,3,4-tetrahydro-2-naphthylamine dihydrochloride]	45	1.8	17	3			
CCCN(CCCCCCOCCc1ccc(O)c(O)c1)[C@H]1CCc2c(ccc(O)c2O)C1.Cl [Compound 25, (S)-N-propyl-N-[6-[2-(3,4-dihydroxyphenyl)ethoxy]hexyl]-5,6-dihydroxy-1,2,3,4-tetrahydro-2-naphthylamine hydrochloride]	130	0.6	1.7	1.3			
Br.CCCN(CCCCCCNC(=O)Cc1ccc(O)c(O)c1)[C@H]1CCc2c(ccc(O)c2O)C1 [Compound 34, (S)-N-propyl-N-[6-[(3,4-dihydroxyphenyl)acetylamino]hexyl]-5,6-dihydroxy-1,2,3,4-tetrahydro-2-naphthylamine hydrobromide]	356	2.1	2.5	5			
NCCc1ccc(O)c(O)c1 [Dopamine]						not absorbed when administered by oral route	
Oc1ccc(CCNCCCCCCNCCc2ccccc2)cc1O [Dopexamine, dopexamine]						not absorbed when administered by oral route	less active than dopamine
CCCN(CCCCCCNCC1COc2ccccc2O1)[C@H]1CCc2c(ccc(O)c2O)C1 (stereo partly drawn) [Compound 1, (S)-N-propyl-N-[6-[(1,4-benzodioxan-2-yl)methylamino]hexyl]-5,6-dihydroxy-1,2,3,4-tetrahydro-2-naphthylamine dihydrochloride]	49	0.66					
